The structures appear in SMILES notation. Calls of active or inactive are those of the source. The calls are words filed in the database; no cut-off is given here.

Experiment [1] addresses T1, Myc proto-oncogene protein (Homo sapiens, UniProt P01106). Nature of the experiment: Inhibition of human c-Myc assessed as reduction in c-Myc/Max/Ebox DNA complex formation using pre-formed complex of c-Myc and biotinylated DNA containing single Ebox-sequence followed by compound addition and further addition of his6-tagged c-Max and incubated for 2 hrs by AlphaScreen assay. A general note: Bead proximity is the source of the signal in Alpha formats.

For experiment [2], the system named is NCI-H2171. Briefly: Cytotoxic activity against human NCI-H2171 cells assessed as reduction in cell viability incubated for 3 days by ATPlite assay. It is filed as functional, cell-based. (In general: ATP-based viability assays read luminescence as a measure of living cells.)
The test system of a further experiment is MM1.S. Nature of the experiment: Cytotoxic activity against human MM1S cells assessed as reduction in cell viability incubated for 3 days by ATPlite assay. The format is functional, cell-based.
In experiment [3] the target is Protein max (Homo sapiens) (UniProt P61244). Nature of the experiment: Inhibition of Max in human NCI-H2171 cells assessed as reduction in Max occupancy at Hnrnpa2b1 binding site at 100 uM incubated for 4 hrs by chromatin immunoprecipitation assay. The format is cell-based.
Chain of Protein max (Homo sapiens) (P61244 whole entry): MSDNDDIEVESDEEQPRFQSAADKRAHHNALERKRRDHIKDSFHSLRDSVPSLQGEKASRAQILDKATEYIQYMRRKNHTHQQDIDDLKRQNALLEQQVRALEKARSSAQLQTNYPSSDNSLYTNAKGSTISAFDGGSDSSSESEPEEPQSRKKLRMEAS
Experiment [4] deals with T1, Myc proto-oncogene protein. Briefly: Inhibition of human his6-tagged c-Myc assessed as reduction in c-Myc/Max/Ebox DNA complex formation by gel shift based orthogonal biochemical assay.
Experiment [5] deals with NCI-H2171. Briefly: Induction of cell differentiation in human NCI-H2171 cells assessed as effect on CCl4 gene expression at 12.5 to 25 uM incubated for 4 days by qRT-PCR analysis. It is filed as functional, cell-based.
The target in experiment [6] is Protein max (Homo sapiens) (UniProt P61244). Nature of the experiment: Inhibition of Max in human NCI-H2171 cells assessed as reduction in Max occupancy at Rp123a binding site at 100 uM incubated for 4 hrs by chromatin immunoprecipitation assay. The format is cell-based.
The test system of experiment [7] is NCI-H2171. Nature of the experiment: Induction of cell differentiation in human NCI-H2171 cells assessed as effect on CD11c gene expression at 12.5 to 25 uM incubated for 4 days by qRT-PCR analysis. It is filed as functional, cell-based.
Experiment [8] has as its target T1, Myc proto-oncogene protein. Nature of the experiment: Inhibition of c-Myc in human NCI-H2171 cells assessed as reduction in c-Myc occupancy at Mat2a binding site at 100 uM incubated for 4 hrs by chromatin immunoprecipitation assay. The format is cell-based.
Experiment [9] has as its system NCI-H2171. Nature of the experiment: Effect on c-Myc protein levels in human NCI-H2171 cells at 100 uM incubated for 4 hrs by […]. The format is functional, cell-based.
The subject of experiment [10] is NCI-H2171. Nature of the experiment: Induction of cell differentiation in human NCI-H2171 cells assessed as effect on CD11c expression at 12.5 to 25 uM incubated for 4 days by FACS analysis. The format is functional, cell-based. For orientation: A flow cytometer gives signals particle by particle.
Experiment [11] deals with T1, Myc proto-oncogene protein. Nature of the experiment: Inhibition of c-Myc in human NCI-H2171 cells assessed as reduction in c-Myc occupancy at Hnrnpa2b1 binding site at 100 uM incubated for 4 hrs by chromatin immunoprecipitation assay. It is filed as cell-based.
In experiment [12] the target is Protein max (Homo sapiens) (UniProt P61244). Briefly: Inhibition of Max in human NCI-H2171 cells assessed as reduction in Max occupancy at Npm1 binding site at 100 uM incubated for 4 hrs by chromatin immunoprecipitation assay. The format is cell-based.
For experiment [13] the target is unchanged. Nature of the experiment: Inhibition of Max in human NCI-H2171 cells assessed as reduction in Max occupancy at Mat2a binding site at 100 uM incubated for 4 hrs by chromatin immunoprecipitation assay. The format is cell-based.
Experiment [14] has as its system NCI-H2171. Briefly: Induction of cell differentiation in human NCI-H2171 cells assessed as effect on CD14 gene expression at 12.5 to 25 uM incubated for 4 days by qRT-PCR analysis. It is filed as functional, cell-based.
The target of experiment [15] is T1, Myc proto-oncogene protein. Briefly: Inhibition of c-Myc in human NCI-H2171 cells assessed as reduction in c-Myc occupancy at Npm1 binding site at 100 uM incubated for 4 hrs by chromatin immunoprecipitation assay. The format is cell-based.
The target of experiment [16] is T1, Myc proto-oncogene protein. Nature of the experiment: Inhibition of c-Myc in human NCI-H2171 cells assessed as reduction in c-Myc occupancy at Rp123a binding site at 100 uM incubated for 4 hrs by chromatin immunoprecipitation assay. It is filed as cell-based.
Experiment [17] can be described thus: Induction of Ebox DNA (unknown origin) intercalation assessed as reduction in c-Myc/Max/Ebox DNA complex formation at 1.7 to 15 uM by gel shift based orthogonal biochemical assay.
Experiment [18] can be described thus: Induction of Ebox DNA (unknown origin) intercalation assessed as reduction in MITF/MITF/Ebox DNA complex formation at 1.7 to 15 uM by gel shift based orthogonal biochemical assay.
Experiment [19] can be described thus: Induction of Ebox DNA (unknown origin) intercalation assessed as reduction in Max/Max/Ebox DNA complex formation at 1.7 to 15 uM by gel shift based orthogonal biochemical assay.
Where [20] appears, read: Homo sapiens, NCI-H2171, 72 h, read-out: EC50.
Where [21] appears, read: Homo sapiens, MM1.S, 72 h, read-out: EC50.

T1 sequence (P01106 whole entry): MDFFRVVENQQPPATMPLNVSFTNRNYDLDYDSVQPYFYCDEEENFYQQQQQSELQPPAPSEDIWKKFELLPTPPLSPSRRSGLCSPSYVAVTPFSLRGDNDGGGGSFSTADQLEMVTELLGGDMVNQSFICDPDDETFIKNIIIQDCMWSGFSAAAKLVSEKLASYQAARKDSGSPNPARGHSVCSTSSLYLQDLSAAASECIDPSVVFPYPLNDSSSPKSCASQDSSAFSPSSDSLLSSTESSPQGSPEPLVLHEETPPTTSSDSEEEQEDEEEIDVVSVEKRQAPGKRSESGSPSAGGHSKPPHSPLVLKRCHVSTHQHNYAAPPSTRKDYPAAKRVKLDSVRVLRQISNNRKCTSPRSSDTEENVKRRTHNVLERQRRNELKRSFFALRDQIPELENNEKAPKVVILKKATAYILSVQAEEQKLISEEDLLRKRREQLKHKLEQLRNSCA

For orientation: IC50 means the concentration needed to halve the response being measured. For `Cc1ccc(C)n1-c1ccccc1C(N)=O`, in experiment [1], the 50% inhibitory concentration (IC50) entry was “Not Active”.

By EC50 is commonly meant the midpoint of the concentration-response curve. `Cc1ccc(C)n1-c1cc(C(=O)N/N=C/c2ccccc2N2CCOCC2)ccc1C(=O)O`: the EC50 entry with NCI-H2171 [2] (nci-h2171) and with MM1.S (mm1.s) was “Not Active” each time. Besides, the IC50 in experiment [1] (read-out: IC50) was determined as 7.05 µM.

Regarding `Cc1ccc(C)n1-c1cc(C(=O)NCCc2cccc(C(=O)O)c2)ccc1C(=O)O`, the IC50 in experiment [1] (read-out: IC50) was determined as 7.27 µM.

Turning to `Cc1ccc(C)n1-c1ccccc1C(=O)O`, the inhibition result (in experiment [3]; in [6]; in the experiment on NCI-H2171 [9]; in [12]; in [13]) was “inactive” throughout. Also, the inhibition entry in [4] is “Dose-dependent effect”. Also, the result in the experiment with NCI-H2171 [5], with NCI-H2171 [7], with NCI-H2171 [10] and in the experiment with NCI-H2171 [14] was Active. In addition, the inhibition entry in experiment [8], in [11], in [15] and in [16] was “Active” in each case.

Turning to `Cc1c(C)c(C)n(-c2ccccc2C(=O)O)c1C`, in experiment [1] (read-out: IC50), the IC50 came to 83.4 µM.

For `CC(=O)OCOC(=O)c1ccccc1-n1c(C)ccc1C`, the EC50 with NCI-H2171 [2] (setting [20]) was 20.7 to 29.9 µM; in the experiment with MM1.S (setting [21]) it was 52.3 to 71.4 µM.

Turning to `Cc1ccc(C)n1-c1cc(C(=O)N/N=C\c2cc(F)c(C(=O)O)c(F)c2)ccc1C(=O)O`, the 50% effective concentration (EC50) result in the experiment with NCI-H2171 [2] (nci-h2171) and with MM1.S (mm1.s) was “Not Active” throughout.

For the molecule `Cc1ccc(C)n1-c1c(C(=O)O)cccc1[N+](=O)[O-]`, the half-inhibitory concentration (IC50) entry in experiment [1] is recorded as “Not Active”.

Turning to `O=C(O)c1ccccc1-n1cccc1`, the inhibition result in experiment [8], in [11], in experiment [15] and in experiment [16] was “inactive” each time.

Take `CC(=O)OCOC(=O)c1ccc(-n2c(C)ccc2C)cc1O`: the EC50 in the experiment with NCI-H2171 [2] (setting [20]) lay in the range of 2.8 to 66.1 µM; in the experiment on MM1.S (setting [21]) it was 11 to 446 µM.

As to `COc1cccc2c1C(=O)c1c(O)c3c(c(O)c1C2=O)C[C@@](O)(C(=O)CO)C[C@@H]3O[C@H]1C[C@H](N)[C@H](O)[C@H](C)O1`, the outcome in experiment [17], in [18] and in experiment [19] was Active.

With `Cc1ccc(C)n1-c1cc(C(=O)N/N=C/c2ccc3nccnc3c2)ccc1C(=O)O`, the EC50 result with NCI-H2171 [2] (nci-h2171) and with MM1.S (mm1.s) was “Not Active” each time.

As to `Cc1ccc(C)n1-c1cc(C(=O)N/N=C/c2c[nH]cn2)ccc1C(=O)O`, the EC50 result with NCI-H2171 [2] (nci-h2171) and in the experiment with MM1.S (mm1.s) was “Not Active” in each case.

`Cc1ccc(C)n1-c1cc(C(=O)N/N=C/c2c[nH]c3ccc(F)cc23)ccc1C(=O)O`: the concentration giving a half-maximal response (EC50) result in the experiment with NCI-H2171 [2] (nci-h2171) and in the experiment on MM1.S (mm1.s) was “Not Active” in each case.

In the case of `Cc1ccc(C)n1-c1cc(C(=O)N/N=C/c2cccc(B(O)O)c2)ccc1C(=O)O`, the half-maximal effective concentration (EC50) entry in the experiment with NCI-H2171 [2] (nci-h2171) and in the experiment with MM1.S (mm1.s) was “Not Active” each time.

With `COC(=O)c1ccc(-n2cccc2)cc1O`, the IC50 entry in experiment [1] is “Not Active”.

Consider `Cc1ccc(C)n1-c1cc(C(=O)O)ccc1C(=O)O`, for which, in the experiment with NCI-H2171 [2] (nci-h2171), the EC50 result is recorded as “Not Active”. Also, in experiment [1] (read-out: IC50), the IC50 turned out to be 0.788 µM.

With `Cc1ccc(C)n1-c1cc(C(=O)N/N=C/c2cccc(C(=O)O)c2)ccc1C(=O)O`, the half-maximal effective concentration (EC50) entry with NCI-H2171 [2] (nci-h2171) and in the experiment with MM1.S (mm1.s) was “Not Active” in each case.

Turning to `Cc1cc(C(=O)N/N=C/c2ccccc2)c(C)n1-c1ccccc1C(=O)O`, the EC50 entry with NCI-H2171 [2] (nci-h2171) and with MM1.S (mm1.s) was “Not Active” each time.

On to `CC(=O)OCOC(=O)c1ccccc1-n1ccnc1C`, for which, in experiment [1], the half-maximal inhibitory concentration (IC50) result is recorded as “Not Active”.

In the case of `Cc1ccc(C)n1-c1cc(C(=O)N/N=C/c2ccc(-c3cncnc3)cc2)ccc1C(=O)O`, the half-maximal effective concentration (EC50) entry with NCI-H2171 [2] (nci-h2171) and with MM1.S (mm1.s) was “Not Active” in each case.

For `COC(=O)c1ccc(-n2c(C)ccc2C)cc1O`, the EC50 entry in the experiment on NCI-H2171 [2] (nci-h2171) and in the experiment on MM1.S (mm1.s) was “Not Active” in each case.

For `CC(=O)Oc1cc(-n2c(C)ccc2C)ccc1C(=O)O`, in experiment [1], the concentration for half-maximal inhibition (IC50) result is listed as “Not Active”.

As to `Cc1ccc(C)n1-c1cc(C(=O)NN)ccc1C(=O)O`, the concentration for a half-maximal effect (EC50) is 0.00363 to 43.7 µM in the experiment on NCI-H2171 [2] (nci-h2171, read-out: EC50) and 625 to 1240 µM in the experiment with MM1.S (setting [21]).

Take `Cc1ccc(C)n1-c1cc(C(=O)N/N=C/c2c[nH]c3ccc(C#N)cc23)ccc1C(=O)O`: the EC50 with NCI-H2171 [2] (setting [20]) is 3240 µM; with MM1.S (setting [21]), 5.75 µM.

With `Cc1ccc(C)n1-c1cc(C(=O)N/N=C/c2ccc(O)cc2)ccc1C(=O)O`, the EC50 entry in the experiment with NCI-H2171 [2] (nci-h2171) and with MM1.S (mm1.s) was “Not Active” each time.

With `O=C(O)c1ccccc1-n1c2ccccc2c2ccccc21`, in experiment [1], the concentration for half-maximal inhibition (IC50) entry is “Not Active”.

Turning to `Cc1ccc(C)n1-c1cc(C(=O)N/N=C/c2ccc(C(=O)O)o2)ccc1C(=O)O`, the half-maximal effective concentration (EC50) result in the experiment on NCI-H2171 [2] (nci-h2171) and in the experiment with MM1.S (mm1.s) was “Not Active” throughout.

`CC(=O)OCOC(=O)c1ccccc1N1CCN(C)CC1`: in experiment [1], the half-inhibitory concentration (IC50) result is recorded as “Not Active”.
